Results reported in paper PMC9712021 (Advances in Pharmacological and Pharmaceutical Sciences, 2022).

Assays:
[1] = test system: S. cerevisiae EG118 (Sod1∆); test: S. cerevisiae central disc test, oxidative damage, strain Sod1∆; format: cell-based, Saccharomyces cerevisiae
From the text: (§1) The central disc test was done according to the method presented by Islam et al.. Superoxide dismutase (CuZnSOD-Sod1) is a cytosolic enzyme that is faulty in strain EG118, whereas mitochondrial SOD is faulty in strain EG110 (MnSOD-Sod2). The strain EG133 has both Sod1 and Sod2 defects, while EG223 has a cytosolic catalase deficiency (Cat1). While EG103 is a competent strain that is identical to the wild-type (SODWT), EG is a dual isogenic strain for the Sod1 and Cat1 genes.

[2] = test system: S. cerevisiae strains (SODWT, Sod1Δ, Sod2Δ, Cat1Δ, Sod1/Sod2Δ, Cat1Δ/Sod1Δ); test: In vivo antioxidant (S. cerevisiae) test, all strains tested; format: cell-based, Saccharomyces cerevisiae; settings: all strains and concentrations tested
From the text: as §1

[3] = test system: S. cerevisiae EG133 (Sod1∆Sod2∆); test: S. cerevisiae central disc test, oxidative damage, strain Sod1∆Sod2∆; format: cell-based, Saccharomyces cerevisiae
From the text: as §1

[4] = design: method as in Oliveira [41]; settings: concentrations from 7.83 to 500 μg/mL; ref Oliveira [41]; cited from earlier work
[5] = Hemolytic activity in mice erythrocytes; format: cell-based, Mus musculus; settings: male, Swiss albino, mouse, pH 7.4, 37°C, 2 h
Method: This test was performed on adult Swiss albino mouse (Mus musculus) erythrocytes. The mouse was collected from the Central Animal House of the Federal University of Piaui, Brazil. It was allowed free access to standard food and water ad libitum and was kept under controlled lighting (12 h dark/light cycles) at 24 ± 2°C. Blood was collected from the retro-orbital plexus of the mouse (male, 24 gm body weight). Hemolytic activity in mouse erythrocytes was performed, according to Jamialahmadi et al..

[6] = test system: S. cerevisiae EG223 (Cat1∆); test: S. cerevisiae central disc test, oxidative damage, strain Cat1∆; format: cell-based, Saccharomyces cerevisiae
From the text: as §1

[7] = test system: S. cerevisiae EG110 (Sod2∆); test: S. cerevisiae central disc test, oxidative damage, strain Sod2∆; format: cell-based, Saccharomyces cerevisiae
From the text: as §1

[8] = DPPH radical scavenging capacity assay; settings: 0.9–14.4 μg/mL; standard Trolox
Method: The DPPH assay was performed according to the method described by Abderrahim et al.. Briefly, a solution containing 300 μL of monoterpenes (0.9–14.4 μg/mL) was added to 2.7 mL of DPPH^• solution (0.5 mM in ethanol). After 30 min, the absorbance was measured using a spectrophotometer (Shimadzu, Japan) at 517 nm.

[9] = test system: S. cerevisiae EG (Sod1∆Cat1∆); test: S. cerevisiae central disc test, oxidative damage, strain Sod1∆Cat1∆; format: cell-based, Saccharomyces cerevisiae
From the text: as §1

[10] = test system: S. cerevisiae EG103 (SODWT); test: S. cerevisiae central disc test, oxidative damage, strain SODWT; format: cell-based, Saccharomyces cerevisiae; design: unit not given here
From the text: as §1

SMILES: C=CCc1ccc(OC)cc1 [Estragole, estragole]
- oxidative damage ([1]; 0.9 μg/mL): 2.00 ± 1.41
- oxidative damage ([1]; 1.8 μg/mL): 1.50 ± 0.70
- oxidative damage ([1]; 7.2 μg/mL): 2.00 ± 1.41
- oxidative damage ([1]; 14.4 μg/mL): 2.00 ± 0.54
- oxidative damage ([1]; 32 μg/mL): 2.50 ± 0.70
- oxidative damage ([1]; 64 μg/mL): 2.50 ± 0.70
- oxidative damage ([1]; 128 μg/mL): 2.50 ± 0.70
- oxidative damage ([1]; 3.6 mg/mL): 2.50 ± 0.70
- oxidative damage ([1]; 256 mg/mL): 2.50 ± 0.70
- oxidative damage ([1]; 500 mg/mL): 1.50 ± 0.70
- percentage modulation of oxidative damage caused by the stressor H2O2 [2]: more than 60%
- oxidative damage ([3]; 0.9 μg/mL): 3.50 ± 0.70
- oxidative damage ([3]; 1.8 μg/mL): 3.50 ± 0.70
- oxidative damage ([3]; 7.2 μg/mL): 2.50 ± 0.70
- oxidative damage ([3]; 14.4 μg/mL): 3.50 ± 0.70
- oxidative damage ([3]; 32 μg/mL): 2.50 ± 0.70
- oxidative damage ([3]; 64 μg/mL): 1.50 ± 0.70
- oxidative damage ([3]; 128 μg/mL): 3.00 ± 1.41
- oxidative damage ([3]; 3.6 mg/mL): 2.50 ± 0.70
- oxidative damage ([3]; 256 mg/mL): 2.50 ± 2.12
- oxidative damage ([3]; 500 mg/mL): 2.50 ± 0.70
- antioxidant capacity [4]: mild antioxidant capacity
- hemolysis at 2 h, 31.25 μg/mL ([5]; 31.25 μg/mL): 1.67 ± 0.35%
- hemolysis at 2 h, 62.5 μg/mL ([5]; 62.5 μg/mL): 3.49 ± 0.26%
- hemolysis at 2 h, 125 μg/mL ([5]; 125 μg/mL): 4.45 ± 0.47%
- hemolysis at 2 h, 250 μg/mL ([5]; 250 μg/mL): 8.21 ± 0.35%
- hemolysis at 2 h, 500 μg/mL ([5]; 500 μg/mL): 10.3 ± 1.35%
- oxidative damage ([6]; 0.9 μg/mL): 3.00 ± 1.41
- oxidative damage ([6]; 1.8 μg/mL): 4.50 ± 0.70
- oxidative damage ([6]; 7.2 μg/mL): 1.50 ± 2.12
- oxidative damage ([6]; 14.4 μg/mL): 4.50 ± 2.12
- oxidative damage ([6]; 32 μg/mL): 3.00 ± 1.41
- oxidative damage ([6]; 64 μg/mL): 7.00 ± 1.41^∗
- oxidative damage ([6]; 128 μg/mL): 2.50 ± 0.70
- oxidative damage ([6]; 3.6 mg/mL): 4.00 ± 1.41
- oxidative damage ([6]; 256 mg/mL): 3.00 ± 1.41
- oxidative damage ([6]; 500 mg/mL): 4.50 ± 0.70
- oxidative damage ([7]; 0.9 μg/mL): 3.00 ± 1.41
- oxidative damage ([7]; 1.8 μg/mL): 3.50 ± 0.70
- oxidative damage ([7]; 7.2 μg/mL): 2.00 ± 0.54
- oxidative damage ([7]; 14.4 μg/mL): 3.50 ± 0.70
- oxidative damage ([7]; 32 μg/mL): 2.00 ± 0.54
- oxidative damage ([7]; 64 μg/mL): 3.50 ± 0.70
- oxidative damage ([7]; 128 μg/mL): 3.50 ± 0.70
- oxidative damage ([7]; 3.6 mg/mL): 2.00 ± 0.54
- oxidative damage ([7]; 256 mg/mL): 2.50 ± 0.70
- oxidative damage ([7]; 500 mg/mL): 3.00 ± 1.41
- DPPH radical scavenging activity [8]: highest scavenging activity
- oxidative damage ([9]; 0.9 μg/mL): 3.50 ± 0.70
- oxidative damage ([9]; 1.8 μg/mL): 4.00 ± 2.82
- oxidative damage ([9]; 7.2 μg/mL): 3.50 ± 0.70
- oxidative damage ([9]; 14.4 μg/mL): 5.00 ± 0.0
- oxidative damage ([9]; 32 μg/mL): 4.50 ± 0.70
- oxidative damage ([9]; 64 μg/mL): 3.00 ± 1.41
- oxidative damage ([9]; 128 μg/mL): 4.50 ± 2.12
- oxidative damage ([9]; 256 μg/mL): 3.00 ± 2.82
- oxidative damage ([9]; 3.6 mg/mL): 4.00 ± 1.41
- oxidative damage ([9]; 500 mg/mL): 3.50 ± 0.70
- oxidative damage ([10]; 0.9 μg/mL): 2.00 ± 0.54
- oxidative damage ([10]; 1.8 μg/mL): 1.50 ± 0.70
- oxidative damage ([10]; 7.2 μg/mL): 2.00 ± 1.41
- oxidative damage ([10]; 14.4 μg/mL): 2.50 ± 0.70
- oxidative damage ([10]; 32 μg/mL): 2.00 ± 0.54
- oxidative damage ([10]; 64 μg/mL): 2.00 ± 0.54
- oxidative damage ([10]; 128 μg/mL): 1.50 ± 0.70
- oxidative damage ([10]; 3.6 mg/mL): 1.00 ± 1.41
- oxidative damage ([10]; 256 mg/mL): 3.50 ± 0.70
- oxidative damage ([10]; 500 mg/mL): 1.50 ± 0.70
